Assays:
[1] = tested on: db/db mice; assay: Antidiabetic effects in db/db mice, Example B (2 weeks daily oral dosing); type: in vivo, mouse
Excerpt: (§1) db/db mice have a defect in leptin signaling, leading to hyperphagia, obesity and diabetes. Moreover, unlike ob/ob mice on a C57BL/6J background, db/db mice on a C57BL/KS background undergo failure of their insulin-producing pancreatic islet cells, resulting in progression from hyperinsulinemia (associated with peripheral insulin resistance) to hypoinsulinemic diabetes.
(§2) Male obese (db/db homozygote) C57BL/Ksola mice approximately 8 weeks of age, were obtained from Jackson Labs (Bar Harbor, Me.) and randomly assigned into groups of 5-7 animals such that the body weights (50-55 g) and serum glucose levels (≧300 mg/dl in fed state) were similar between groups; male lean (db/+heterozygote) mice served as cohort controls. A minimum of 7 days was allowed for adaptation after arrival. All animals were maintained under controlled temperature (23° C.), relative humidity (50±5%) and light (7:00-19:00), and allowed free access to standard chow (Formulab Diet 5008, Quality Lab Products, Elkridge, Md.) and water.
Treatment cohorts were given daily oral doses of Vehicle (1% hydroxypropylmethylcellulose), Compounds BI, CE, BT, BV, […] or Fenofibrate for 2 weeks. At the end of the treatment period 100 μl of venous blood was withdrawn in a heparinized capillary tube from the retro-orbital sinus of db/db mice for serum chemistry analysis.

[2] = target: T1, Human PPARα LBD fusion protein (Homo sapiens, UniProt Q07869); assay: Transcription activation potential, GAL4 luciferase reporter in C3A cells; type: cell-based
T1 construct: a.a; 167-468)
T1 sequence (Q07869 167-468): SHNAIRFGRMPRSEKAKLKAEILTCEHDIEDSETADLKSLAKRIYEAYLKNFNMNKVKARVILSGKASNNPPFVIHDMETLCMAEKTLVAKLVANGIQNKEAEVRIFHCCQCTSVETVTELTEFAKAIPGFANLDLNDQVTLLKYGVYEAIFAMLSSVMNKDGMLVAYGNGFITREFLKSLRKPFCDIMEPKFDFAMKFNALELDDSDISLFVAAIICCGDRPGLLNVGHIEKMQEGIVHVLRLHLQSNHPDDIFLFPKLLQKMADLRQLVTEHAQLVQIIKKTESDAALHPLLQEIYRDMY
Description: (§3) Cells were seeded in 24 well plates the day prior to transfection at 5×10^4−2×10^5 cells/well, depending upon cell type. Cells were transfected using Lipofectamine 2000 reagent from Invitrogen. A total of 0.8 μg DNA/well was added to 50 μL of Optimem Reduced Serum media (serum free; Gibco). Lipofectamine 2000 was added (2.5 μL/well) to another tube containing 50 μL of Optimem media. Plasmid DNA was added at a ratio of 4:3 (reporter:activator); where appropriate, salmon sperm DNA was substituted for activator expressing plasmid. The reporter plasmid used was pFR-Luc, which has the firefly luciferase gene under the control of a GAL4 UAS ([…]) containing promoter. The activator expressing plasmids contain yeast GAL4 DNA binding domain (dbd) fusion of either human PPARα ligand binding domain (LBD; a.a. 167-468) or human PPARγ LBD (a.a. 176-479). DNA constructs containing the mouse PPARα or PPARγ LBD fused to the GAL4 DNA binding domain were also used. The two solutions were incubated at room temperature for 5 min, and then combined. The combined solution was incubated at room temperature for approximately 30 min. Cells were washed once with PBS, and 100 μL of transfection mix added to each well. Plates were incubated at 37° C. in a 5% CO2 incubator for 4.5 hr, followed by aspiration of the transfection mix, with plates refed using EMEM complete media (supplemented with 10% FBS, 1× Glutamine). 24 hr post-transfection, plates were treated with the appropriate compounds in EMEM complete media, followed by washing once with PBS and addition of 100 μL 1× reporter lysis buffer/well (Promega) 24 hr after treatment. Plates went through one freeze/thaw cycle prior to analysis. Approximately 10 μL of lysate was added to 100 μL of firefly luciferase substrate, mixed by pipetting, and analyzed on a luminometer for 10 s using the integration function (relative luciferase units/RLU) or on a Microbeta Trilux (luciferase counts per second/LCPS). Each treatment was performed in triplicate, and in multiple, separate experiments.

[3] = target: T2, Mouse PPARα LBD fusion protein (Mus musculus, UniProt P23204); assay: as above; type: cell-based; conditions: Table 20a
T2 sequence (P23204 239-466): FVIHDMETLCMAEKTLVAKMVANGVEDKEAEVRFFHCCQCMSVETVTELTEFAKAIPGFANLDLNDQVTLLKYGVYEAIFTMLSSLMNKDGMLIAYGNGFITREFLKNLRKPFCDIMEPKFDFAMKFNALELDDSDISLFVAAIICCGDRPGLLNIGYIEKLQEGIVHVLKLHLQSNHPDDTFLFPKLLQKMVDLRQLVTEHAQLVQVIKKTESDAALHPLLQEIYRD
Description: as §3

[4] = tested on: Human PPARγ LBD fusion protein; assay: as above; type: cell-based
Description: (§4) Cells were seeded in 24 well plates the day prior to transfection at 5×10^4−2×10^5 cells/well, depending upon cell type. Cells were transfected using Lipofectamine 2000 reagent from Invitrogen. A total of 0.8 μg DNA/well was added to 50 μL of Optimem Reduced Serum media (serum free; Gibco). Lipofectamine 2000 was added (2.5 μL/well) to another tube containing 50 μL of Optimem media. Plasmid DNA was added at a ratio of 4:3 (reporter:activator); where appropriate, salmon sperm DNA was substituted for activator expressing plasmid. […] DNA constructs containing the mouse PPARα or PPARγ LBD fused to the GAL4 DNA binding domain were also used. The two solutions were incubated at room temperature for 5 min, and then combined. The combined solution was incubated at room temperature for approximately 30 min. Cells were washed once with PBS, and 100 μL of transfection mix added to each well. Plates were incubated at 37° C. in a 5% CO2 incubator for 4.5 hr, followed by aspiration of the transfection mix, with plates refed using EMEM complete media (supplemented with 10% FBS, 1× Glutamine). 24 hr post-transfection, plates were treated with the appropriate compounds in EMEM complete media, followed by washing once with PBS and addition of 100 μL 1× reporter lysis buffer/well (Promega) 24 hr after treatment. Plates went through one freeze/thaw cycle prior to analysis. Approximately 10 μL of lysate was added to 100 μL of firefly luciferase substrate, mixed by pipetting, and analyzed on a luminometer for 10 s using the integration function (relative luciferase units/RLU) or on a Microbeta Trilux (luciferase counts per second/LCPS). Each treatment was performed in triplicate, and in multiple, separate experiments.

[5] = target: T3, Mouse PPARγ LBD fusion protein (Mus musculus, UniProt P37238); assay: as above; type: cell-based; conditions: Table 20b
T3 sequence (P37238 238-503): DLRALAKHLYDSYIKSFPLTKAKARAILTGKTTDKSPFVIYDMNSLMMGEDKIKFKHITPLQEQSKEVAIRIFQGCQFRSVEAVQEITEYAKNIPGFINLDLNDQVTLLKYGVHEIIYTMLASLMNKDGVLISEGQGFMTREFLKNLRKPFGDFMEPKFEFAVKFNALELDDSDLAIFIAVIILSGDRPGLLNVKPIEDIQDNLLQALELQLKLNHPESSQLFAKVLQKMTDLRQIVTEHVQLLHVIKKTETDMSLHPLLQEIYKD
Description: as §4

[6] = tested on: db/db mice; assay: Antidiabetic effects in db/db mice, Example C (17 days daily oral dosing); type: in vivo, mouse; conditions: 300 mg/kg daily oral
Excerpt: as §1, with “C57BL/Ksola (db/db) mice have” for “db/db mice have”, “on a C57BLKS background undergo” for “on a C57BL/KS background undergo”
as §2, with “sorted” for “randomly assigned”, “7 animals each” for “5-7”, “(40-45” for “(50-55”, “groups.” for “groups; male lean (db/+heterozygote) mice served as cohort controls.”
Treatment cohorts were given daily oral doses of vehicle (1% hydroxypropylmethylcellulose), Compounds BI, CF, CG, or phenylacetate for 17 days. At the end of the treatment period, blood samples were collected and serum glucose and triglycerides were measured.

[7] = serum, 2 weeks daily oral, dose not given in Table 17 (see Table 16)

SMILES: Cc1cccc(C)c1COc1cccc(CCCC(=O)O)c1 [CE, 4-(3-(2,6-Dimethylbenzyloxy)phenyl)butyric acid]
- Glucose (% of Control) ([1]; 93 mg/kg daily oral, 2 weeks): 54 ± 8 % of Control
- Glucose ([1]; nonfasting, 93 mg/kg daily oral, 2 weeks): 372.0 ± 53.8 mg/dL
- Free Fatty Acids ± SEM [1, 7]: 2867.4 ± 267.7 µM
- Triglycerides ± SEM [1, 7]: 132.0 ± 15.2 mg/dL
- transcription activation potential (luciferase) ± standard deviation ([2]; 1 μM): 14.7 ± 14.6 LCPS
- transcription activation potential (luciferase) ± standard deviation ([2]; 3 μM): 13.2 ± 5.8 LCPS
- transcription activation potential (luciferase) ± standard deviation ([2]; 10 μM): 26.2 ± 1.4 LCPS
- transcription activation potential (luciferase) ± standard deviation ([2]; 30 μM): 10.67 ± 1.2 LCPS
- transcription activation potential (luciferase) ± standard deviation ([2]; 100 μM): 6.33 ± 2.6 LCPS
- transcription activation potential (luciferase) ± standard deviation ([2]; 200 μM): 12.8 ± 3.7 LCPS
- transcription activation potential (luciferase) ± standard deviation ([3]; 1 μM): 9.47 ± 2.14 LCPS
- transcription activation potential (luciferase) ± standard deviation ([3]; 3 μM): 9.57 ± 2.61 LCPS
- transcription activation potential (luciferase) ± standard deviation ([3]; 10 μM): 1.17 ± 2.49 LCPS
- transcription activation potential (luciferase) ± standard deviation ([3]; 30 μM): 7.4 ± 0.23 LCPS
- transcription activation potential (luciferase) ± standard deviation ([3]; 100 μM): 6.13 ± 0.17 LCPS
- transcription activation potential (luciferase) ± standard deviation ([3]; 200 μM): 8 ± 1.88 LCPS
- transcription activation potential (luciferase) ± standard deviation ([4]; 1 μM test compound): 60 ± 11.6 LCPS
- transcription activation potential (luciferase) ± standard deviation ([4]; 3 μM test compound): 73.3 ± 30.9 LCPS
- transcription activation potential (luciferase) ± standard deviation ([4]; 10 μM test compound): 57.3 ± 22.6 LCPS
- transcription activation potential (luciferase) ± standard deviation ([4]; 30 μM test compound): 28.5 ± 16.4 LCPS
- transcription activation potential (luciferase) ± standard deviation ([4]; 100 μM test compound): 37.7 ± 23.4 LCPS
- transcription activation potential (luciferase) ± standard deviation ([4]; 200 μM test compound): 12.3 ± 4.8 LCPS
- transcription activation potential (luciferase) ± standard deviation ([5]; 1 μM test compound): 14.3 ± 4.5 LCPS
- transcription activation potential (luciferase) ± standard deviation ([5]; 3 μM test compound): 13.43 ± 8.5 LCPS
- transcription activation potential (luciferase) ± standard deviation ([5]; 10 μM test compound): 6.03 ± 3.75 LCPS
- transcription activation potential (luciferase) ± standard deviation ([5]; 30 μM test compound): 9.6 ± 5.46 LCPS
- transcription activation potential (luciferase) ± standard deviation ([5]; 100 μM test compound): 11.7 ± 11.7 LCPS
- transcription activation potential (luciferase) ± standard deviation ([5]; 200 μM test compound): 10.5 ± 9.2 LCPS

SMILES: O=C(O)Cc1ccccc1 [Phenylacetate, reference compound]
- Glucose mg/dL (±SEM) [6]: 661 ± 64 mg/dL
- Triglycerides [6]: 171 ± 33 mg/dL
